# Source: ChEMBL document CHEMBL1201861, “Genomics of Drug Sensitity in Cancer screening data, Wellcome Trust Sanger Institute”
# Tests used:
# Assay in all cases: cells
# COLO-800 = format: functional, cell-based, Homo sapiens; settings: Homo sapiens, COLO-800;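 note: growth inhibition of COLO-800 cells, read out with a cell viability assay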
# Description: SANGER: Inhibition of human COLO-800 cell growth in a cell viability assay.
# COLO-824 = format: functional, cell-based, Homo sapiens; settings: Homo sapiens, COLO-824
# Description: SANGER: Inhibition of human COLO-824 cell growth in a cell viability assay.
# COR-L88 = format: functional, cell-based, Homo sapiens; settings: Homo sapiens, COR-L88;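 note: growth inhibition of COR-L88 cells, read out with a cell viability assay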
# Description: SANGER: Inhibition of human COR-L88 cell growth in a cell viability assay.
# CW-2 = format: functional, cell-based, Homo sapiens; settings: Homo sapiens, CW-2;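 note: growth inhibition of CW-2 cells, read out by a cell viability assay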
# Description: SANGER: Inhibition of human CW-2 cell growth in a cell viability assay.
# DB = format: functional, cell-based, Homo sapiens; settings: Homo sapiens, DB
# Description: SANGER: Inhibition of human DB cell growth in a cell viability assay.
# ES7 = format: functional, cell-based, Homo sapiens; settings: Homo sapiens, ES7;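 note: growth inhibition of cultured human ES7 cells, read out as cell viability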
# Description: SANGER: Inhibition of human ES7 cell growth in a cell viability assay.
# EW-11 = format: functional, cell-based, Homo sapiens; settings: Homo sapiens, EW-11;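 note: growth inhibition of human EW-11 cells, measured with a cell viability assay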
# Description: SANGER: Inhibition of human EW-11 cell growth in a cell viability assay.
# EW-13 = format: functional, cell-based, Homo sapiens; settings: Homo sapiens, EW-13; read-out: IC50;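 note: growth inhibition of EW-13 cells, read out with a cell viability assay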
# Description: SANGER: Inhibition of human EW-13 cell growth in a cell viability assay.
# GI-ME-N = format: functional, cell-based, Homo sapiens; settings: Homo sapiens, GI-ME-N;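 note: growth inhibition of human GI-ME-N cells, read out with a cell viability assay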
# Description: SANGER: Inhibition of human GI-ME-N cell growth in a cell viability assay.
# GOTO = format: functional, cell-based, Homo sapiens; settings: Homo sapiens, GOTO;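 note: growth inhibition of GOTO cells, read out by a cell viability assay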
# Description: SANGER: Inhibition of human GOTO cell growth in a cell viability assay.
# GR-ST = format: functional, cell-based, Homo sapiens; settings: Homo sapiens, GR-ST
# Description: SANGER: Inhibition of human GR-ST cell growth in a cell viability assay.
# HCC2218 = format: functional, cell-based, Homo sapiens; settings: Homo sapiens, HCC2218;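 note: cell viability assay read-out, with IC50 given as the concentration that inhibits growth of the cell line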
# Description: SANGER: Inhibition of human HCC2218 cell growth in a cell viability assay.
# HCE-T = format: functional, cell-based, Homo sapiens; settings: Homo sapiens, HCE-T;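 note: cell viability assay read-out, reporting inhibition of HCE-T cell growth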
# Description: SANGER: Inhibition of human HCE-T cell growth in a cell viability assay.
# HD-MY-Z = format: functional, cell-based, Homo sapiens; settings: Homo sapiens, HD-MY-Z;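 note: growth inhibition of HD-MY-Z cells, read out with a cell viability assay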
# Description: SANGER: Inhibition of human HD-MY-Z cell growth in a cell viability assay.
# HH = format: functional, cell-based, Homo sapiens; settings: Homo sapiens, HH
# Description: SANGER: Inhibition of human HH cell growth in a cell viability assay.
# HT-144 = format: functional, cell-based, Homo sapiens; settings: Homo sapiens, HT-144
# K562 = format: functional, cell-based, Homo sapiens; settings: Homo sapiens, K562
# KM-H2 = format: functional, cell-based, Homo sapiens; settings: Homo sapiens, KM-H2;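 note: growth inhibition of KM-H2 cells, read out by a cell viability assay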
# Description: SANGER: Inhibition of human KM-H2 cell growth in a cell viability assay.
# KNS-42 = format: functional, cell-based; settings: Homo sapiens;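 note: growth inhibition of KNS-42 cells, read out with a cell viability assay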
# Description: SANGER: Inhibition of human KNS-42 cell growth in a cell viability assay.
# KP-N-YS = format: functional, cell-based, Homo sapiens; settings: Homo sapiens, KP-N-YS;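 note: cell viability assay measuring inhibition of cell line growth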
# Description: SANGER: Inhibition of human KP-N-YS cell growth in a cell viability assay.
# LB2241-RCC = format: functional, cell-based, Homo sapiens; settings: Homo sapiens, LB2241-RCC;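 note: cell viability assay measuring how strongly the cultured human renal carcinoma line is prevented from growing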
# Lu-65 = format: functional, cell-based, Homo sapiens; settings: Homo sapiens, Lu-65;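 note: growth inhibition of Lu-65 cancer cells, read out by a cell viability assay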
# Description: SANGER: Inhibition of human LU-65 cell growth in a cell viability assay.
# LXF-289 cell line = format: functional, cell-based; settings: Homo sapiens
# Description: SANGER: Inhibition of human LXF-289 cell growth in a cell viability assay.
# MHH-NB-11 = format: functional, cell-based, Homo sapiens; settings: Homo sapiens, MHH-NB-11;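 note: growth inhibition of human MHH-NB-11 cells, read out by a cell viability assay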
# Description: SANGER: Inhibition of human MHH-NB-11 cell growth in a cell viability assay.
# MLMA = format: functional, cell-based, Homo sapiens; settings: Homo sapiens, MLMA;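 note: growth inhibition of MLMA cells (human), determined through a cell viability readout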
# Description: SANGER: Inhibition of human MLMA cell growth in a cell viability assay.
# MMAC-SF = format: functional, cell-based; settings: Homo sapiens;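 note: growth inhibition of human MMAC-SF cells, read out with a cell viability assay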
# MPP-89 = format: functional, cell-based, Homo sapiens; settings: Homo sapiens, MPP-89;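 note: growth inhibition of human MPP-89 cells, read out with a cell viability assay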
# Description: SANGER: Inhibition of human MPP-89 cell growth in a cell viability assay.
# MSTO-211H = format: functional, cell-based, Homo sapiens; settings: Homo sapiens, MSTO-211H
# Description: SANGER: Inhibition of human MSTO-211H cell growth in a cell viability assay.
# NB5 = format: functional, cell-based, Homo sapiens; settings: Homo sapiens, NB5;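 note: growth inhibition of NB5 cells, read out as cell viability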
# Description: SANGER: Inhibition of human NB5 cell growth in a cell viability assay.
# NCI-H1304 = format: functional, cell-based, Homo sapiens; settings: Homo sapiens, NCI-H1304;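 note: growth inhibition of the cancer cell line, measured in a cell viability assay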
# Description: SANGER: Inhibition of human NCI-H1304 cell growth in a cell viability assay.
# NCI-H1838 = format: functional, cell-based, Homo sapiens; settings: Homo sapiens, NCI-H1838;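 note: growth inhibition of NCI-H1838 cells, determined with a cell viability readout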
# Description: SANGER: Inhibition of human NCI-H1838 cell growth in a cell viability assay.
# NCI-H209 = format: functional, cell-based, Homo sapiens; settings: Homo sapiens, NCI-H209;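 note: growth inhibition of human NCI-H209 cells, measured by a cell viability assay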
# Description: SANGER: Inhibition of human NCI-H209 cell growth in a cell viability assay.
# NCI-H23 = format: functional, cell-based, Homo sapiens; settings: Homo sapiens, NCI-H23;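 note: cell viability assay measuring growth inhibition of NCI-H23 cells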
# Description: SANGER: Inhibition of human NCI-H23 cell growth in a cell viability assay.
# NCI-H446 = format: functional, cell-based, Homo sapiens; settings: Homo sapiens, NCI-H446;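 note: growth inhibition of NCI-H446 cells determined by a cell viability assay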
# Description: SANGER: Inhibition of human NCI-H446 cell growth in a cell viability assay.
# NCI-H747 = format: functional, cell-based, Homo sapiens; settings: Homo sapiens, NCI-H747;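 note: growth inhibition of human NCI-H747 cells, read out by a cell viability assay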
# Description: SANGER: Inhibition of human NCI-H747 cell growth in a cell viability assay.
# NCI-N87 = format: functional, cell-based; settings: Homo sapiens;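 note: growth inhibition of human NCI-N87 cells, read out with a cell viability assay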
# Description: SANGER: Inhibition of human NCI-N87 cell growth in a cell viability assay.
# SNU1 = format: functional, cell-based, Homo sapiens; settings: Homo sapiens, SNU1;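 note: growth inhibition of human NCI-SNU-1 cells, measured with a cell viability assay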
# Description: SANGER: Inhibition of human NCI-SNU-1 cell growth in a cell viability assay.
# SNU-5 = format: functional, cell-based, Homo sapiens; settings: Homo sapiens, SNU-5;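 note: cell viability readout used to measure growth inhibition in human NCI-SNU-5 cells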
# Description: SANGER: Inhibition of human NCI-SNU-5 cell growth in a cell viability assay.
# NH-12 = format: functional, cell-based, Homo sapiens; settings: Homo sapiens, NH-12;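 note: growth inhibition of NH-12 cells, read out with a cell viability assay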
# Description: SANGER: Inhibition of human NH-12 cell growth in a cell viability assay.
# OMC-1 = format: functional, cell-based, Homo sapiens; settings: Homo sapiens, OMC-1;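 note: growth inhibition of the OMC-1 cell line, measured by a cell viability assay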
# OS-RC-2 = format: functional, cell-based, Homo sapiens; settings: Homo sapiens, OS-RC-2;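 note: growth inhibition of human OS-RC-2 cells, measured by a cell viability assay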
# Description: SANGER: Inhibition of human OS-RC-2 cell growth in a cell viability assay.
# RCC10RGB = format: functional, cell-based, Homo sapiens; settings: Homo sapiens, RCC10RGB;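 note: growth inhibition of human RCC10RGB cells, read out by a cell viability assay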
# Description: SANGER: Inhibition of human RCC10RGB cell growth in a cell viability assay.
# SBC-1 = format: functional, cell-based, Homo sapiens; settings: Homo sapiens, SBC-1;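 note: cell viability assay measuring growth inhibition of the SBC-1 cell line, IC50 being the concentration that halves growth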
# Description: SANGER: Inhibition of human SBC-1 cell growth in a cell viability assay.
# SF-268 = format: functional, cell-based, Homo sapiens; settings: Homo sapiens, SF-268;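 note: growth inhibition of SF-268 cells determined with a cell viability assay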
# Description: SANGER: Inhibition of human SF268 cell growth in a cell viability assay.
# SJSA-1 = format: functional, cell-based, Homo sapiens; settings: Homo sapiens, SJSA-1;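 note: growth inhibition of human SJSA-1 cells, read out through a cell viability measurement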
# Description: SANGER: Inhibition of human SJSA-1 cell growth in a cell viability assay.
# SK-MEL-2 = format: functional, cell-based, Homo sapiens; settings: Homo sapiens, SK-MEL-2;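 note: growth inhibition of human SK-MEL-2 cells measured with a cell viability assay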
# Description: SANGER: Inhibition of human SK-MEL-2 cell growth in a cell viability assay.
# SW872 = format: functional, cell-based, Homo sapiens; settings: Homo sapiens, SW872;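 note: growth inhibition of SW872 cells, read out by a viability assay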
# Description: SANGER: Inhibition of human SW872 cell growth in a cell viability assay.
# ALL-PO = format: functional, cell-based, Homo sapiens; settings: Homo sapiens, ALL-PO;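 note: growth inhibition of ALL-PO cells, read out by a cell viability assay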
# Description: SANGER: Inhibition of human ALL-PO cell growth in a cell viability assay.
# Becker = format: functional, cell-based, Homo sapiens; settings: Homo sapiens, Becker;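 note: growth inhibition of Becker cells, read out with a cell viability assay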
# Description: SANGER: Inhibition of human Becker cell growth in a cell viability assay.
# CGTH-W-1 = format: functional, cell-based, Homo sapiens; settings: Homo sapiens, CGTH-W-1;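 note: growth inhibition of human CGTH-W-1 cells measured by cell viability assay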
# Description: SANGER: Inhibition of human CGTH-W-1 cell growth in a cell viability assay.
structure (smiles),measurement,setting,value
NC(=O)Nc1cc(-c2cccc(F)c2)sc1C(=O)N[C@H]1CCCNC1 [AZD-7762],IC50,COLO-800,0.603 µM
same,IC50,COLO-824,> 2 µM
same,IC50,COR-L88,0.365 µM
same,IC50,CW-2,> 2 µM
same,IC50,DB,1.7 µM
same,IC50,ES7,0.16 µM
same,IC50,EW-11,0.563 µM
same,IC50,EW-13,> 2 µM
same,IC50,GI-ME-N,0.455 µM
same,IC50,GOTO,0.0312 µM
same,IC50,GR-ST,0.178 µM
same,IC50,HCC2218,> 2 µM
same,IC50,HCE-T,0.442 µM
same,IC50,HD-MY-Z,0.0625 µM
same,IC50,HH,0.708 µM
same,IC50,HT-144,0.338 µM
same,IC50,K562,> 2 µM
same,IC50,KM-H2,1.22 µM
same,IC50,KNS-42,> 2 µM
same,IC50,KP-N-YS,0.584 µM
same,IC50,LB2241-RCC,0.061 µM
same,IC50,Lu-65,> 2 µM
same,IC50,LXF-289 cell line,0.676 µM
same,IC50,MHH-NB-11,0.39 µM
same,IC50,MLMA,0.0285 µM
same,IC50,MMAC-SF,> 2 µM
same,IC50,MPP-89,0.245 µM
same,IC50,MSTO-211H,0.299 µM
same,IC50,NB5,0.797 µM
same,IC50,NCI-H1304,> 2 µM
same,IC50,NCI-H1838,> 2 µM
same,IC50,NCI-H209,0.324 µM
same,IC50,NCI-H23,0.248 µM
same,IC50,NCI-H446,0.748 µM
same,IC50,NCI-H747,> 2 µM
same,IC50,NCI-N87,0.846 µM
same,IC50,SNU1,0.271 µM
same,IC50,SNU-5,> 2 µM
same,IC50,NH-12,0.357 µM
same,IC50,OMC-1,0.575 µM
same,IC50,OS-RC-2,0.62 µM
same,IC50,RCC10RGB,> 2 µM
same,IC50,SBC-1,> 2 µM
same,IC50,SF-268,0.881 µM
same,IC50,SJSA-1,0.417 µM
same,IC50,SK-MEL-2,0.1 µM
same,IC50,SW872,> 2 µM
same,IC50,ALL-PO,0.242 µM
same,IC50,Becker,0.658 µM
same,IC50,CGTH-W-1,0.0142 µM
CC(C)C[C@H](NC(=O)[C@H](Cc1ccccc1)NC(=O)c1cnccn1)B(O)O [BORTEZOMIB],IC50,COLO-800,0.0176 µM
same,IC50,COLO-824,> 0.02 µM
same,IC50,COR-L88,0.00347 µM
same,IC50,CW-2,0.00321 µM
same,IC50,DB,0.00341 µM
same,IC50,ES7,0.000766 µM
same,IC50,EW-11,> 0.02 µM
same,IC50,EW-13,> 0.02 µM
same,IC50,GI-ME-N,0.000634 µM
same,IC50,GOTO,0.0171 µM
same,IC50,GR-ST,> 0.02 µM
same,IC50,HCC2218,0.0195 µM
same,IC50,HCE-T,0.000439 µM
same,IC50,HD-MY-Z,0.00393 µM
same,IC50,HH,0.00213 µM
same,IC50,HT-144,0.000576 µM
same,IC50,K562,0.00412 µM
same,IC50,KM-H2,> 0.02 µM
same,IC50,KNS-42,0.000258 µM
same,IC50,KP-N-YS,> 0.02 µM
same,IC50,LB2241-RCC,0.000804 µM
same,IC50,Lu-65,0.00584 µM
same,IC50,LXF-289 cell line,0.000269 µM
same,IC50,MHH-NB-11,0.00491 µM
same,IC50,MLMA,0.00885 µM
same,IC50,MMAC-SF,0.000216 µM
same,IC50,MPP-89,0.00189 µM
same,IC50,MSTO-211H,> 0.02 µM
same,IC50,NB5,0.00227 µM
same,IC50,NCI-H1304,> 0.02 µM
same,IC50,NCI-H1838,> 0.02 µM
same,IC50,NCI-H209,> 0.02 µM
same,IC50,NCI-H23,0.0121 µM
same,IC50,NCI-H446,> 0.02 µM
same,IC50,NCI-H747,0.000539 µM
same,IC50,NCI-N87,> 0.02 µM
same,IC50,SNU1,0.0132 µM
same,IC50,SNU-5,0.00517 µM
same,IC50,NH-12,> 0.02 µM
same,IC50,OMC-1,0.00418 µM
same,IC50,OS-RC-2,0.00044 µM
same,IC50,RCC10RGB,0.00393 µM
same,IC50,SBC-1,0.00501 µM
same,IC50,SF-268,0.000923 µM
same,IC50,SJSA-1,0.00221 µM
same,IC50,SK-MEL-2,> 0.02 µM
same,IC50,SW872,0.000996 µM
same,IC50,ALL-PO,> 0.02 µM
same,IC50,Becker,0.00183 µM
same,IC50,CGTH-W-1,0.0031 µM
C[C@@H](Oc1cc(-c2cnn(C3CCNCC3)c2)cnc1N)c1c(Cl)ccc(F)c1Cl [CRIZOTINIB],IC50,COLO-800,> 2 µM
same,IC50,COLO-824,> 2 µM
same,IC50,COR-L88,> 2 µM
same,IC50,CW-2,> 2 µM
same,IC50,DB,> 2 µM
same,IC50,ES7,> 2 µM
same,IC50,EW-11,> 2 µM
same,IC50,EW-13,> 2 µM
same,IC50,GI-ME-N,> 2 µM
same,IC50,GOTO,> 2 µM
same,IC50,GR-ST,> 2 µM
same,IC50,HCC2218,> 2 µM
same,IC50,HCE-T,> 2 µM
same,IC50,HD-MY-Z,> 2 µM
same,IC50,HH,> 2 µM
same,IC50,HT-144,> 2 µM
same,IC50,K562,1.72 µM
same,IC50,KM-H2,> 2 µM
same,IC50,KNS-42,> 2 µM
same,IC50,KP-N-YS,> 2 µM
same,IC50,LB2241-RCC,> 2 µM
same,IC50,Lu-65,> 2 µM
same,IC50,LXF-289 cell line,> 2 µM
same,IC50,MHH-NB-11,> 2 µM
same,IC50,MLMA,> 2 µM
same,IC50,MMAC-SF,> 2 µM
same,IC50,MPP-89,> 2 µM
same,IC50,MSTO-211H,> 2 µM
same,IC50,NB5,> 2 µM
same,IC50,NCI-H1304,> 2 µM
same,IC50,NCI-H1838,> 2 µM
same,IC50,NCI-H209,> 2 µM
same,IC50,NCI-H23,> 2 µM
same,IC50,NCI-H446,> 2 µM
same,IC50,NCI-H747,> 2 µM
same,IC50,NCI-N87,> 2 µM
same,IC50,SNU1,> 2 µM
same,IC50,SNU-5,0.106 µM
same,IC50,NH-12,> 2 µM
same,IC50,OMC-1,> 2 µM
same,IC50,OS-RC-2,> 2 µM
same,IC50,RCC10RGB,> 2 µM
same,IC50,SBC-1,> 2 µM
same,IC50,SF-268,> 2 µM
same,IC50,SJSA-1,> 2 µM
same,IC50,SK-MEL-2,> 2 µM
same,IC50,SW872,> 2 µM
same,IC50,ALL-PO,> 2 µM
same,IC50,Becker,> 2 µM
same,IC50,CGTH-W-1,> 2 µM
